From ChEMBL document CHEMBL5465560, “Selectivity Literature for EUbOPEN Chemogenomic Library” (2024)
Values belong to the compound of their own block, whether it stands above or below them.

How the values were obtained:
[1] = molecular target: Serine/threonine-protein kinase 38 (Homo sapiens) (UniProt Q15208); experiment: Selectivity interaction (KinomeScan (DiscoverX)) EUB0000607a STK38; details: at 10 µM
[2] = molecular target: T1, Serine/threonine-protein kinase D3 (Homo sapiens) (UniProt O94806); experiment: Selectivity interaction (KinomeScan (DiscoverX)) EUB0000045b PRKD3
T1 sequence (whole entry): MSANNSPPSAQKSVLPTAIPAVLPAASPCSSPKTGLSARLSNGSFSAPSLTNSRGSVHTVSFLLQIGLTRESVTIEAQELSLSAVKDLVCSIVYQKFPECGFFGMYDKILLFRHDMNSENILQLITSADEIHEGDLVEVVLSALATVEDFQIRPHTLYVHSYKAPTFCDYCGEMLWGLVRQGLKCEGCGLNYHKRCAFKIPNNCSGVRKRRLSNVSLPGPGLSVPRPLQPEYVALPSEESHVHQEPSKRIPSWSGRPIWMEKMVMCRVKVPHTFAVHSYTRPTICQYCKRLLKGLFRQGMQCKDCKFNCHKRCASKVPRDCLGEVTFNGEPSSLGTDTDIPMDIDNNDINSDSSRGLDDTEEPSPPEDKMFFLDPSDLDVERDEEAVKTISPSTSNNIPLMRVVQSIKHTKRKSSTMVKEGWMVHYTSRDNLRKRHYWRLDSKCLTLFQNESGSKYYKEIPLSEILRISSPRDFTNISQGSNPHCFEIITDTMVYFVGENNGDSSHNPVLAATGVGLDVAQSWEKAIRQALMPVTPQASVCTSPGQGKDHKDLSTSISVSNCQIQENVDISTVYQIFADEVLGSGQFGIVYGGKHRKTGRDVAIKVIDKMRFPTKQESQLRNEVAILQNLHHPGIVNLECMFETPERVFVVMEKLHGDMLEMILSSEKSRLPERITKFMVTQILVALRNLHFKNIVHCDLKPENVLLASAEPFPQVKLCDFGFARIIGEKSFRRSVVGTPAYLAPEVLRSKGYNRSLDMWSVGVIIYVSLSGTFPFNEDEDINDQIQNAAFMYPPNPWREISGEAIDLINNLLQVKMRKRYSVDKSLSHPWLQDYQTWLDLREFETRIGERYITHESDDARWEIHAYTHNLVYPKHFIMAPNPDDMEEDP

[3] = molecular target: 5'-AMP-activated protein kinase catalytic subunit alpha-2 (Homo sapiens) (UniProt P54646); experiment: Selectivity interaction (KinomeScan (DiscoverX)) EUB0000595a PRKAA2; details: at 10 µM
[4] = molecular target: Serine/threonine-protein kinase Nek6 (Homo sapiens) (UniProt Q9HC98); experiment: Selectivity interaction (Upstate Kinase Profiler service (Millipore)) EUB0000056c NEK6; details: at 1 µM
[5] = molecular target: MAP kinase-activated protein kinase 3 (Homo sapiens) (UniProt Q16644); experiment: Selectivity interaction (Kinase panel (KiNativ target engagement assay in Jurkat cells)) EUB0001635a MAPKAPK3; format: cell-based; details: Selectivity number of off-targets 0.0, Selectivity number of targets 233.0, Source Knowledge https://www.sciencedirect.com/science/article/pii/S2451945619300674?via%3Dihub, at 1 µM
[6] = molecular target: T2, SNF-related serine/threonine-protein kinase (Homo sapiens) (UniProt Q9NRH2); experiment: Selectivity interaction (ActivX KiNativ screen (kinase selectivity in THP-1 cell lysates)) EUB0000639a SNRK; format: subcellular; details: lysate, at 0.2 µM
T2 sequence (whole entry): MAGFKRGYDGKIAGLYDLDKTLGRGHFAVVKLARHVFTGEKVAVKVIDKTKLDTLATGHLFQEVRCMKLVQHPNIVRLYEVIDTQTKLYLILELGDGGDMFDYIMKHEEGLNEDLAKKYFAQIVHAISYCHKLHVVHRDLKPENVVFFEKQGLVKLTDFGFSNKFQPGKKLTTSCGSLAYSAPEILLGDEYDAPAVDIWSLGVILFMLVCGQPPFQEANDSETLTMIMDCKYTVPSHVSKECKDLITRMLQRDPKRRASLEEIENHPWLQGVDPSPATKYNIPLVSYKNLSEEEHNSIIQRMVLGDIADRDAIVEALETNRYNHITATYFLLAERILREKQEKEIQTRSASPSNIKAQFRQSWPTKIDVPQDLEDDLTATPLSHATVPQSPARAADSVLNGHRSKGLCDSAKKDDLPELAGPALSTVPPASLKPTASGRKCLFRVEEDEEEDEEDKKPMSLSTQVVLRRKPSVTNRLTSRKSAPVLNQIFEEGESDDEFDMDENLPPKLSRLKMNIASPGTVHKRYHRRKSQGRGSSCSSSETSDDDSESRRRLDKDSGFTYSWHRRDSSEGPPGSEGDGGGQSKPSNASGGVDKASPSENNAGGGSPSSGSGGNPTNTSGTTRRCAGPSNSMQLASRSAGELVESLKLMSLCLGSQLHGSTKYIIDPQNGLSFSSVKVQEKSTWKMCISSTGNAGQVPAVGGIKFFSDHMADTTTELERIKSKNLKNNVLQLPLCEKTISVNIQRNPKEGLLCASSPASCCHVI

[7] = molecular target: 5'-AMP-activated protein kinase catalytic subunit alpha-2 (Homo sapiens) (UniProt P54646); experiment: Selectivity interaction (ActivX KiNativ screen (kinase selectivity in THP-1 cell lysates)) EUB0000639a PRKAA2; format: subcellular; details: lysate, at 0.2 µM
[8] = molecular target: Serine/threonine-protein kinase 24 (Homo sapiens) (UniProt Q9Y6E0); experiment: Selectivity interaction (KinomeScan (DiscoverX)) EUB0000229b STK24; details: at 10 µM
Serine/threonine-protein kinase 24 (Homo sapiens), sequence (Q9Y6E0 whole entry, looked up): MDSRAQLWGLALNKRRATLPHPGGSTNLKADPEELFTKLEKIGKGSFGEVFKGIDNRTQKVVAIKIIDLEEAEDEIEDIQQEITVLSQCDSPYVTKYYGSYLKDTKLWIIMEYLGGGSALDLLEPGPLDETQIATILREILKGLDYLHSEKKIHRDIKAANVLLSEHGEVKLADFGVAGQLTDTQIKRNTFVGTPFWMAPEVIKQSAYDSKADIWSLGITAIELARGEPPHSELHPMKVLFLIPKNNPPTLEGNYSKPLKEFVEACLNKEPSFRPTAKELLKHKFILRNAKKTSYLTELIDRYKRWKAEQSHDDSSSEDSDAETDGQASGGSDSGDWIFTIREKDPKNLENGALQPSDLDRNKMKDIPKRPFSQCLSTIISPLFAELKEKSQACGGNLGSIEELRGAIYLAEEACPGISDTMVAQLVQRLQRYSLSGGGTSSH

5'-AMP-activated protein kinase catalytic subunit alpha-2 (Homo sapiens), sequence (P54646 whole entry, looked up): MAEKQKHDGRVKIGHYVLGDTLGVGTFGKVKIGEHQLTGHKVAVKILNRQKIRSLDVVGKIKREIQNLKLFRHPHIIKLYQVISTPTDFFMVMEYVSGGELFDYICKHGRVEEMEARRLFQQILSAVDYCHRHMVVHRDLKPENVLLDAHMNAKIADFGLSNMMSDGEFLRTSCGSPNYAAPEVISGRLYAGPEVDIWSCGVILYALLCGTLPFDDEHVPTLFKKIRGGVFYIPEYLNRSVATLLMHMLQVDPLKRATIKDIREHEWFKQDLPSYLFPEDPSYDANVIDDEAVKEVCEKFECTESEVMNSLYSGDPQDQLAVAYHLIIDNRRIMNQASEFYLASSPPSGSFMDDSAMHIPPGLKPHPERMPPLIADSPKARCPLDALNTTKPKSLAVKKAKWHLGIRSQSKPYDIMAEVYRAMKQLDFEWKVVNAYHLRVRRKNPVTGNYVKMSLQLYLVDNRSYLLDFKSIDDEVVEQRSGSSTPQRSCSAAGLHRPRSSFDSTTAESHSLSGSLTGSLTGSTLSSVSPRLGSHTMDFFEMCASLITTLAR
MAP kinase-activated protein kinase 3 (Homo sapiens), sequence (Q16644 whole entry, looked up): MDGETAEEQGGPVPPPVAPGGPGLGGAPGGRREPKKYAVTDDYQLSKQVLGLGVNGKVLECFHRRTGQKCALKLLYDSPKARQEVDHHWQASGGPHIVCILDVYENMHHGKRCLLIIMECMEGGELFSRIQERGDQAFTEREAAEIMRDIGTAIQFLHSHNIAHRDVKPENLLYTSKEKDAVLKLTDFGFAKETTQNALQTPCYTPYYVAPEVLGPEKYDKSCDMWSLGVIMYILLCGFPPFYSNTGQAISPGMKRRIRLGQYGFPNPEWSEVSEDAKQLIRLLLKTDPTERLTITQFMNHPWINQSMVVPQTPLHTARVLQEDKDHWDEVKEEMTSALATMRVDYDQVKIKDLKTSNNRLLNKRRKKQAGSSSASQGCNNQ
Serine/threonine-protein kinase Nek6 (Homo sapiens), sequence (Q9HC98 whole entry): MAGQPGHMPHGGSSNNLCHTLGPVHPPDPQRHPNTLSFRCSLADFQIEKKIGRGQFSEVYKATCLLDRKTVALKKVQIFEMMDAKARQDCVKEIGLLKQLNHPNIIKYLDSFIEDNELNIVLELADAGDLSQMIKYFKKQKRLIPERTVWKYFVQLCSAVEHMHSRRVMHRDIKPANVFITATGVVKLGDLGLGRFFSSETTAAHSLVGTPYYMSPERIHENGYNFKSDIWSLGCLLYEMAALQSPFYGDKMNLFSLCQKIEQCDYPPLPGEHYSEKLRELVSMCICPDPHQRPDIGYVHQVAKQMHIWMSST
Serine/threonine-protein kinase 38 (Homo sapiens), sequence (Q15208 2-465 limits assumed): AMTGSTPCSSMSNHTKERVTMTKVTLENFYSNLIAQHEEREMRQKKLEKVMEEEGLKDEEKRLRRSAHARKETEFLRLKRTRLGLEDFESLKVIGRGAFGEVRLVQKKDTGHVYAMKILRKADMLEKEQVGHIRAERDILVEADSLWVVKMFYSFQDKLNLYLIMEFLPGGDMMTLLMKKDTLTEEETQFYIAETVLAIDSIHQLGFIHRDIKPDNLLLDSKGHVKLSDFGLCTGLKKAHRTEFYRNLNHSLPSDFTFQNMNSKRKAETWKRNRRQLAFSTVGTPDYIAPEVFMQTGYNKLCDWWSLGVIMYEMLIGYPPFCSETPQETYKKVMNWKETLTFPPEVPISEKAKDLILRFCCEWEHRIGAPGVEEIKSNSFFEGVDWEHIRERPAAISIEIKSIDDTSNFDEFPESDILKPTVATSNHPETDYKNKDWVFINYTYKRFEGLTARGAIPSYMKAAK

SMILES: CNC(=O)Nc1ccc(-c2nc(N3CC4CCC(C3)O4)c3cnn(C4CCC5(CC4)OCCO5)c3n2)cc1
% of control [1]: 100%

SMILES: C=CC(=O)Nc1cc(-n2c(=O)ccc3cnc4ccc(-c5ccc(NS(C)(=O)=O)cc5)cc4c32)ccc1C
% of control ([2]; at 1 µM): 82%
% of control ([2]; at 10 µM): 68%

SMILES: COCC(=O)NC/C=C/c1ccc2ncnc(Nc3ccc(Oc4ccc(C)nc4)c(C)c3)c2c1 [CP-724714]
% of control [3]: 100%

% of inhibition [4]: -6%
SMILES: Cc1ccc(-c2ccc3c(ccc4sc5c(c43)NC[C@@H](C)NC5=O)n2)cn1

SMILES: C=CC(=O)Nc1ccc(C(=O)Nc2[nH]nc3c2CN(C(=O)N[C@H](CN(C)C)c2ccccc2)C3(C)C)cc1
% of engagement [5]: -9.9%

% of inhibition [6]: 8.5%
% of inhibition [7]: -4.3%
SMILES: CC[C@@H]1[C@H](F)C(=O)N[C@@H]1COc1nccc2cc(C(N)=O)c(OC)cc12 [ZIMLOVISERTIB]

SMILES: COc1cc(N(C)c2ccnc3ccc(C(F)(F)F)cc23)cc(OC)c1OC
% binding [8]: 95%
